# Laboratory results reported in patent US20140163012A1, “PYRIDO-/AZEPINO-BENZOFURAN AND PYRIDO-/AZEPINO-BENZOTHIOPHENE MCH-1 ANTAGONISTS, METHODS OF MAKING, AND USE THEREOF” (Albany Molecular Research, Inc., priority 2012, published 2014).
# Counter-ions that a name gives are not always drawn.
# Target: human MCH-1 receptor (Homo sapiens, UniProt Q99705)
# Test: Binding assay for human melanin-concentrating hormone (MCH-1) receptor, radioligand displacement on CHO-K1 cell membranes
# Conditions: not given
# Chain of human MCH-1 receptor (Q99705 whole entry): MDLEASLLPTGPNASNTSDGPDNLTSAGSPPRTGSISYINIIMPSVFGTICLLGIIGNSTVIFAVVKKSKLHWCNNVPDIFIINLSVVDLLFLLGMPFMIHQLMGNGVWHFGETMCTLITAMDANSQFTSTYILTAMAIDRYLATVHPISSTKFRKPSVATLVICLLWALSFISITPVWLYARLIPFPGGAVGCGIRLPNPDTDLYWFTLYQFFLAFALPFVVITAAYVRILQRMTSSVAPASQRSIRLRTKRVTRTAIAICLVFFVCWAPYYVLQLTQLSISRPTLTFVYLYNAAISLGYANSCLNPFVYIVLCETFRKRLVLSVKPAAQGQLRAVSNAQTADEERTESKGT
row,Compound,Ki [µM]
1,"O=c1cc(OCc2ccccc2)ccn1-c1ccc2c3c(oc2c1)CCN1CCCC31 (stereo not shown) [Example 73, 4-(Benzyloxy)-1-(1,2,3,5,6,11c-hexahydrobenzofuro[2,3-g]indolizin-9-yl)pyridin-2(1H)-one hydrochloride]",0.0055
2,"O=c1cc(OCc2ccccc2)ccn1-c1ccc2oc3c(c2c1)CNCC3 [Example 74, 4-(Benzyloxy)-1-(1,2,3,4-tetrahydrobenzofuro[3,2-c]pyridin-8-yl)pyridin-2(1H)-one hydrochloride]",0.373
3,"O=c1cc(OCc2ccccc2)ccn1-c1ccc2oc3c(c2c1)CCNCC3 [Example 77, 4-(Benzyloxy)-1-(2,3,4,5-tetrahydro-1H-benzofuro[2,3-d]azepin-9-yl)pyridin-2(1H)-one hydrochloride]",0.044
4,"O=c1cc(OCc2ccc(F)cn2)ccn1-c1ccc2oc3c(c2c1)CCNCC3 [Example 79, 4-((5-Fluoropyridin-2-yl)methoxy)-1-(2,3,4,5-tetrahydro-1H-benzofuro[2,3-d]azepin-9-yl)pyridin-2(1H)-one hydrochloride]",0.078
5,"O=c1cc(OCc2ccc(F)cn2)ccn1-c1ccc2c3c(oc2c1)CCN1CCCC31 (stereo not shown) [Example 80, 4-((5-Fluoropyridin-2-yl)methoxy)-1-(1,2,3,5,6,11c-hexahydrobenzofuro[2,3-g]indolizin-9-yl)pyridin-2(1H)-one hydrochloride]",0.0083
6,"CC(C)N1CCCc2oc3cc(-n4ccc(OCc5cccc(C(F)(F)F)n5)cc4=O)ccc3c2C1 [Example 81, 1-(2-Isopropyl-2,3,4,5-tetrahydro-1H-benzofuro[3,2-c]azepin-8-yl)-4-((6-(trifluoromethyl)pyridin-2-yl)methoxy)pyridin-2(1H)-one hydrochloride]",0.062
7,"CN1CCCc2oc3cc(-n4ccc(-c5ccc(C(F)(F)F)cc5)cc4=O)ccc3c2C1 [Example 82, 1-(2-Methyl-2,3,4,5-tetrahydro-1H-benzofuro[3,2-c]azepin-8-yl)-4-(4-(trifluoromethyl)phenyl)pyridin-2(1H)-one hydrochloride]",0.0082
8,"O=C1CN(CCc2ccc(F)cn2)CCN1c1ccc2c3c(oc2c1)CCCNC3 [Example 83, 4-(2-(5-Fluoropyridin-2-yl)ethyl)-1-(2,3,4,5-tetrahydro-1H-benzofuro[3,2-c]azepin-8-yl)piperazin-2-one hydrochloride]",0.052
9,"CN1CCc2oc3cc(-n4ccc(OCc5ccc(C(F)(F)F)nc5)cc4=O)ccc3c2CC1 [Example 84, 1-(3-Methyl-2,3,4,5-tetrahydro-1H-benzofuro[2,3-d]azepin-8-yl)-4-((6-(trifluoromethyl)pyridin-3-yl)methoxy)pyridin-2(1H)-one hydrochloride]",0.029
10,"Cc1ccc(COc2ccn(-c3ccc4c5c(oc4c3)CCCN(C)C5)c(=O)c2)cn1 [Example 85, 1-(2-Methyl-2,3,4,5-tetrahydro-1H-benzofuro[3,2-c]azepin-8-yl)-4-((6-methylpyridin-3-yl)methoxy)pyridin-2(1H)-one hydrochloride]",0.116
11,"CN1CCCc2oc3cc(-n4ccc(OCc5ccc(C(F)(F)F)nc5)cc4=O)ccc3c2C1 [Example 86, 1-(2-Methyl-2,3,4,5-tetrahydro-1H-benzofuro[3,2-c]azepin-8-yl)-4-((6-(trifluoromethyl)pyridin-3-yl)methoxy)pyridin-2(1H)-one hydrochloride]",0.053
12,"O=C1CN(CCc2ccc(Cl)cc2)CCN1c1ccc2c3c(oc2c1)CCNC3 [Example 87, 4-(4-Chlorophenethyl)-1-(1,2,3,4-tetrahydrobenzofuro[3,2-c]pyridin-7-yl)piperazin-2-one hydrochloride]",0.058
13,"O=c1cc(OCc2ccccc2)ccn1-c1ccc2c3c(oc2c1)CCN(CCF)C3 [Example 92, 4-(Benzyloxy)-1-(2-(2-fluoroethyl)-1,2,3,4-tetrahydrobenzofuro[3,2-c]pyridin-7-yl)pyridin-2(1H)-one hydrochloride]",0.025

# Second part, the compound after the results:
row,Ki [µM],Compound
1,0.017,"O=C1CN(CCc2ccc(Cl)cc2)CCN1c1ccc2c3c(oc2c1)CCCNC3 [Example 89, 4-(4-Chlorophenethyl)-1-(2,3,4,5-tetrahydro-1H-benzofuro[3,2-c]azepin-8-yl)piperazin-2-one hydrochloride]"
2,0.019,"O=C1CN(CCc2ccc(Cl)cn2)CCN1c1ccc2c3c(oc2c1)CCCNC3 [Example 90, 4-(2-(5-Chloropyridin-2-yl)ethyl)-1-(2,3,4,5-tetrahydro-1H-benzofuro[3,2-c]azepin-8-yl)piperazin-2-one hydrochloride]"
3,0.069,"CN1CCCc2oc3cc(N4CCN(CCc5ccc(Cl)cc5)CC4=O)ccc3c2C1 [Example 93, 4-(4-Chlorophenethyl)-1-(2-methyl-2,3,4,5-tetrahydro-1H-benzofuro[3,2-c]azepin-8-yl)piperazin-2-one hydrochloride]"
4,0.103,"CN1CCCc2oc3cc(N4CCN(CCc5ccc(Cl)cn5)CC4=O)ccc3c2C1 [Example 94, 4-(2-(5-Chloropyridin-2-yl)ethyl)-1-(2-methyl-2,3,4,5-tetrahydro-1H-benzofuro[3,2-c]azepin-8-yl)piperazin-2-one hydrochloride]"
5,0.15,"CC(C)N1CCCc2oc3cc(N4CCN(CCc5ccc(Cl)cc5)CC4=O)ccc3c2C1 [Example 96, 4-(4-Chlorophenethyl)-1-(2-isopropyl-2,3,4,5-tetrahydro-1H-benzofuro[3,2-c]azepin-8-yl)piperazin-2-one hydrochloride]"
6,0.153,"O=C1CN(CCc2ccc(Cl)cn2)CCN1c1ccc2c3c(oc2c1)CCNCC3 [Example 98, 4-(2-(5-Chloropyridin-2-yl)ethyl)-1-(2,3,4,5-tetrahydro-1H-benzofuro[2,3-d]azepin-8-yl)piperazin-2-one hydrochloride]"
7,0.098,"O=C1CN(CCc2ccc(Cl)cc2)CCN1c1ccc2c3c(oc2c1)CCNCC3 [Example 99, 4-(4-Chlorophenethyl)-1-(2,3,4,5-tetrahydro-1H-benzofuro[2,3-d]azepin-8-yl)piperazin-2-one hydrochloride]"
8,0.0081,"O=c1cc(CCc2ccc(F)cn2)ccn1-c1ccc2c3c(oc2c1)CCCNC3 [Example 100, 4-(2-(5-Fluoropyridin-2-yl)ethyl)-1-(2,3,4,5-tetrahydro-1H-benzofuro[3,2-c]azepin-8-yl)pyridin-2(1H)-one hydrochloride]"
9,0.008,"O=c1nc(CCc2ccc(Cl)cn2)ccn1-c1ccc2c3c(oc2c1)CCCNC3 [Example 103, 4-(2-(5-Chloropyridin-2-yl)ethyl)-1-(2,3,4,5-tetrahydro-1H-benzofuro[3,2-c]azepin-8-yl)pyrimidin-2(1H)-one hydrochloride]"
10,0.199,"O=c1cc(-c2ccc(C(F)(F)F)nn2)ccn1-c1ccc2c3c(oc2c1)CCCNC3 [Example 106, 1-(2,3,4,5-Tetrahydro-1H-benzofuro[3,2-c]azepin-8-yl)-4-(6-(trifluoromethyl)pyridazin-3-yl)pyridin-2(1H)-one hydrochloride]"
11,0.0042,"O=c1cc(CCc2ccc(Cl)cn2)ccn1-c1ccc2c3c(oc2c1)CCCNC3 [Example 107, 4-(2-(5-Chloropyridin-2-yl)ethyl)-1-(2,3,4,5-tetrahydro-1H-benzofuro[3,2-c]azepin-8-yl)pyridin-2(1H)-one hydrochloride]"
12,0.0032,"O=c1cc(CCc2ccccc2)ccn1-c1ccc2c3c(oc2c1)CCCNC3 [Example 108, 4-Phenethyl-1-(2,3,4,5-tetrahydro-1H-benzofuro[3,2-c]azepin-8-yl)pyridin-2(1H)-one hydrochloride]"
13,0.013,"O=c1cc(OCc2ccc(C(F)(F)F)cn2)ccn1-c1ccc2c3c(oc2c1)CCNC3 [Example 115, 1-(1,2,3,4-Tetrahydrobenzofuro[3,2-c]pyridin-7-yl)-4-((5-(trifluoromethyl)pyridin-2-yl)methoxy)pyridin-2(1H)-one hydrochloride]"

# Same assay, conditions: read-out: MCH1 % inhibition @ 1 uM
row,Compound,inhibition at 1 µM [%]
1,"O=c1cc(OCc2ccc(F)cn2)ccn1-c1ccc2oc3c(c2c1)CNCCC3 [Example 75, 4-((5-Fluoropyridin-2-yl)methoxy)-1-(2,3,4,5-tetrahydro-1H-benzofuro[3,2-c]azepin-9-yl)pyridin-2(1H)-one hydrochloride]",34
2,"O=c1cc(OCc2ccc(F)cn2)ccn1-c1ccc2oc3c(c2c1)CNCC3 [Example 76, 4-((5-Fluoropyridin-2-yl)methoxy)-1-(1,2,3,4-tetrahydrobenzofuro[3,2-c]pyridin-8-yl)pyridin-2(1H)-one hydrochloride]",35
3,"O=c1cc(OCc2ccccc2)ccn1-c1ccc2oc3c(c2c1)CNCCC3 [Example 78, 4-(Benzyloxy)-1-(2,3,4,5-tetrahydro-1H-benzofuro[3,2-c]azepin-9-yl)pyridin-2(1H)-one hydrochloride]",35

# Next, values leading:
row,inhibition at 1 µM [%],Compound
1,62,"CN1CCCc2oc3cc(N4CCN(CCc5ccc(F)cn5)CC4=O)ccc3c2C1 [Example 95, 4-(2-(5-Fluoropyridin-2-yl)ethyl)-1-(2-methyl-2,3,4,5-tetrahydro-1H-benzofuro[3,2-c]azepin-8-yl)piperazin-2-one hydrochloride]"
2,66,"CC(C)N1CCCc2oc3cc(N4CCN(CCc5ccc(Cl)cn5)CC4=O)ccc3c2C1 [Example 97, 4-(2-(5-Chloropyridin-2-yl)ethyl)-1-(2-isopropyl-2,3,4,5-tetrahydro-1H-benzofuro[3,2-c]azepin-8-yl)piperazin-2-one hydrochloride]"
3,12,"O=c1cc(OCc2ccc(F)cn2)ccn1-c1ccc2oc3c(c2c1)CCCNC3 [Example 109, 4-((5-Fluoropyridin-2-yl)methoxy)-1-(2,3,4,5-tetrahydro-1H-benzofuro[2,3-c]azepin-7-yl)pyridin-2(1H)-one hydrochloride]"
4,12,"O=c1cc(OCc2ccccc2)ccn1-c1ccc2oc3c(c2c1)CCCNC3 [Example 110, 4-(Benzyloxy)-1-(2,3,4,5-tetrahydro-1H-benzofuro[2,3-c]azepin-7-yl)pyridin-2(1H)-one hydrochloride]"
5,37,"O=c1cc(OCc2ccccc2)ccn1-c1ccc2sc3c(c2c1)CCCNC3 [Example 116, 4-(Benzyloxy)-1-(2,3,4,5-tetrahydro-1H-benzo[4,5]thieno[2,3-c]azepin-7-yl)pyridin-2(1H)-one hydrochloride]"
